Assay results from patent US20110034990A1, “BIOCORRODIBLE IMPLANT WITH ACTIVE COATING” (priority 2009, published 2011).

Excerpt: It has been discovered that squalene is a particularly suitable substance for use in some invention embodiments. […] Thus, for example, lycopene and ubichinon are toxic in concentrations of 10 μmol/l. Squalene, on the other hand, is not toxic, even in concentrations of 100 μmol/l.

Compound	concentration at which the substance is toxic
CC(C)=CCCC(C)=CCCC(C)=CCCC=C(C)CCC=C(C)CCC=C(C)C [Squalene, 2,6,10,15,19,23-hexamethyl-2,6,10,14,18,22-tetracosahexaene]	> 100 µM
CC(C)=CCC/C(C)=C/C=C/C(C)=C/C=C/C(C)=C/C=C/C=C(C)/C=C/C=C(C)/C=C/C=C(\C)CCC=C(C)C [lycopene]	10 µM
ubichinon	10 µM
